# Measured values: ChEMBL document CHEMBL3885861, “Open TG-GATES”
# Species: Rattus norvegicus
# Experiment: Open TG-GATES - Regimen: Daily Repeat
# Format: toxicity, organism-based, Sprague-Dawley
# Design: regimen Daily Repeat, gender Male, age 6 weeks
# Conditions: in vivo, po, route gavage; for gamma-GTP / ALP / ALT / AST / CRE / Ca / Cl / DBIL / GLC / IP / K / LDH / Na / PL / RALB / TBIL / TC / TG / TP / BUN: tissue Plasma; for APTT / Bas / Eos / Fbg / Hb / Lym / MCH / MCHC / MCV / Mono / Plat / RBC / Ret / WBC / Ht: tissue Blood; for KIDNEY_L / KIDNEY_R / KIDNEY_TOTAL: tissue Kidney
# [1] = 75 mg/kg, 72 h, dose level Middle, time 3 day
# [2] = 75 mg/kg, […], dose level Middle, time 7 day
# [3] = 75 mg/kg, […], dose level Middle, time 14 day
# [4] = 75 mg/kg, […], dose level Middle, time 28 day
# [5] = 250 mg/kg, 72 h, dose level High, time 3 day
# [6] = 250 mg/kg, […], dose level High, time 7 day
# [7] = 250 mg/kg, […], dose level High, time 14 day
# [8] = 250 mg/kg, […], dose level High, time 28 day
smiles,measurement,setting,value
O=C1CN(/N=C/c2ccc(-c3ccc([N+](=O)[O-])cc3)o2)C(O)=N1 [DANTROLENE],gamma-GTP,"25 mg/kg, […], dose level Low, time 28 day",1.6 IU/L
same,TERMINAL_BW,[1],213.7 g
same,APTT,[1],19.1 s
same,Bas,[1],0%
same,Eos,[1],1%
same,Fbg,[1],223.4 mg/dL
same,Hb,[1],14.1 g/dL
same,Lym,[1],81.8%
same,MCH,[1],21.6 pg
same,MCHC,[1],33.8%
same,MCV,[1],63.8 fL
same,Mono,[1],7%
same,Plat,[1],126.6 x10_4/uL
same,RBC,[1],656.2 x10_4/ul
same,Ret,[1],2.9%
same,WBC,[1],97.1 x10_2/uL
same,KIDNEY_L,[1],1 g
same,KIDNEY_R,[1],1 g
same,KIDNEY_TOTAL,[1],2 g
same,ALP,[1],615 IU/L
same,ALT,[1],30.2 IU/L
same,AST,[1],63.2 IU/L
same,CRE,[1],0.6 mg/dL
same,Ca,[1],10.8 mg/dL
same,Cl,[1],105.2 meq/L
same,DBIL,[1],0.01 mg/dL
same,GLC,[1],188 mg/dL
same,IP,[1],6 mg/dL
same,K,[1],4.2 meq/L
same,LDH,[1],107.2 IU/L
same,Na,[1],140.6 meq/L
same,PL,[1],142 mg/dL
same,RALB,[1],3.9 g/dL
same,TBIL,[1],0.3 mg/dL
same,TC,[1],75.4 mg/dL
same,TG,[1],52.4 mg/dL
same,TP,[1],5.8 g/dL
same,gamma-GTP,[1],1 IU/L
same,TERMINAL_BW,[2],242.5 g
same,TERMINAL_BW,[3],289.9 g
same,TERMINAL_BW,[4],346.6 g
same,APTT,[2],17.1 s
same,Bas,[2],0%
same,Eos,[2],1%
same,Fbg,[2],207.4 mg/dL
same,Hb,[2],14.3 g/dL
same,Lym,[2],77.8%
same,MCH,[2],21.1 pg
same,MCHC,[2],33.5%
same,MCV,[2],63 fL
same,Mono,[2],8.4%
same,RBC,[2],679 x10_4/ul
same,Ret,[2],5.6%
same,WBC,[2],121.9 x10_2/uL
same,APTT,[3],16.7 s
same,Bas,[3],0%
same,Eos,[3],0.6%
same,Fbg,[3],222.4 mg/dL
same,Hb,[3],15.3 g/dL
same,Lym,[3],83.6%
same,MCH,[3],21 pg
same,MCHC,[3],34%
same,MCV,[3],61.8 fL
same,Mono,[3],5.8%
same,Plat,[3],114.6 x10_4/uL
same,RBC,[3],727.2 x10_4/ul
same,Ret,[3],4.7%
same,WBC,[3],127.2 x10_2/uL
same,APTT,[4],16.8 s
same,Bas,[4],0%
same,Eos,[4],1.2%
same,Fbg,[4],231.8 mg/dL
same,Hb,[4],15.7 g/dL
same,Ht,[4],46.3%
same,Lym,[4],79.4%
same,MCH,[4],19.5 pg
same,MCHC,[4],33.9%
same,MCV,[4],57.5 fL
same,Mono,[4],5.4%
same,Plat,[4],118.7 x10_4/uL
same,RBC,[4],806.6 x10_4/ul
same,Ret,[4],4.4%
same,KIDNEY_L,[2],1.1 g
same,KIDNEY_R,[2],1.1 g
same,KIDNEY_TOTAL,[2],2.1 g
same,KIDNEY_L,[3],1.2 g
same,KIDNEY_R,[3],1.2 g
same,KIDNEY_TOTAL,[3],2.4 g
same,KIDNEY_L,[4],1.4 g
same,KIDNEY_R,[4],1.4 g
same,KIDNEY_TOTAL,[4],2.8 g
same,ALP,[2],857.6 IU/L
same,ALT,[2],34 IU/L
same,AST,[2],61.2 IU/L
same,BUN,[2],18.2 mg/dL
same,CRE,[2],0.5 mg/dL
same,Ca,[2],10.8 mg/dL
same,Cl,[2],108.6 meq/L
same,DBIL,[2],0.014 mg/dL
same,GLC,[2],185.6 mg/dL
same,IP,[2],6.9 mg/dL
same,K,[2],4.8 meq/L
same,LDH,[2],107.4 IU/L
same,Na,[2],139.6 meq/L
same,PL,[2],139.4 mg/dL
same,RALB,[2],3.8 g/dL
same,TBIL,[2],0.4 mg/dL
same,TC,[2],65.6 mg/dL
same,TG,[2],74.4 mg/dL
same,TP,[2],5.7 g/dL
same,gamma-GTP,[2],1.4 IU/L
same,ALP,[3],636.8 IU/L
same,ALT,[3],30.6 IU/L
same,AST,[3],57.4 IU/L
same,BUN,[3],19.6 mg/dL
same,CRE,[3],0.6 mg/dL
same,Ca,[3],10.8 mg/dL
same,Cl,[3],105.4 meq/L
same,DBIL,[3],0.016 mg/dL
same,GLC,[3],186.8 mg/dL
same,IP,[3],6.5 mg/dL
same,K,[3],3.9 meq/L
same,LDH,[3],101.8 IU/L
same,Na,[3],141 meq/L
same,PL,[3],160.6 mg/dL
same,RALB,[3],3.8 g/dL
same,TBIL,[3],0.4 mg/dL
same,TC,[3],66.4 mg/dL
same,TG,[3],130.4 mg/dL
same,TP,[3],5.9 g/dL
same,gamma-GTP,[3],0.6 IU/L
same,ALP,[4],509.8 IU/L
same,ALT,[4],31.8 IU/L
same,AST,[4],53 IU/L
same,BUN,[4],18.8 mg/dL
same,CRE,[4],0.5 mg/dL
same,Ca,[4],10.7 mg/dL
same,Cl,[4],106.4 meq/L
same,DBIL,[4],0.05 mg/dL
same,GLC,[4],179.8 mg/dL
same,IP,[4],6.2 mg/dL
same,K,[4],4.2 meq/L
same,LDH,[4],122.4 IU/L
same,Na,[4],140 meq/L
same,PL,[4],169.6 mg/dL
same,RALB,[4],4 g/dL
same,TBIL,[4],0.2 mg/dL
same,TC,[4],72.4 mg/dL
same,TG,[4],139.8 mg/dL
same,TP,[4],6.2 g/dL
same,gamma-GTP,[4],1.2 IU/L
same,TERMINAL_BW,[5],193.8 g
same,APTT,[5],18.5 s
same,Bas,[5],0%
same,Eos,[5],1%
same,Fbg,[5],226.8 mg/dL
same,Hb,[5],14.7 g/dL
same,Lym,[5],85%
same,MCH,[5],21.1 pg
same,MCHC,[5],33.3%
same,MCV,[5],63.2 fL
same,Mono,[5],6.6%
same,Plat,[5],124.6 x10_4/uL
same,RBC,[5],696 x10_4/ul
same,Ret,[5],2.8%
same,WBC,[5],69 x10_2/uL
same,KIDNEY_L,[5],1 g
same,KIDNEY_R,[5],1 g
same,KIDNEY_TOTAL,[5],2 g
same,ALP,[5],630.6 IU/L
same,ALT,[5],29.6 IU/L
same,AST,[5],52.4 IU/L
same,BUN,[5],17.2 mg/dL
same,CRE,[5],0.5 mg/dL
same,Ca,[5],10.4 mg/dL
same,Cl,[5],103.8 meq/L
same,DBIL,[5],0.018 mg/dL
same,GLC,[5],174 mg/dL
same,IP,[5],8.2 mg/dL
same,K,[5],4.4 meq/L
same,LDH,[5],99.6 IU/L
same,Na,[5],139.2 meq/L
same,PL,[5],121.2 mg/dL
same,RALB,[5],3.7 g/dL
same,TBIL,[5],0.4 mg/dL
same,TC,[5],62.8 mg/dL
same,TG,[5],24 mg/dL
same,TP,[5],5.5 g/dL
same,gamma-GTP,[5],1 IU/L
same,TERMINAL_BW,[6],231.2 g
same,TERMINAL_BW,[7],269 g
same,TERMINAL_BW,[8],326.2 g
same,APTT,[6],18.1 s
same,Bas,[6],0%
same,Eos,[6],0.8%
same,Fbg,[6],233 mg/dL
same,Hb,[6],14.4 g/dL
same,Lym,[6],81.4%
same,MCH,[6],21.2 pg
same,MCHC,[6],33.5%
same,MCV,[6],63.3 fL
same,Mono,[6],6%
same,Plat,[6],108.9 x10_4/uL
same,RBC,[6],680.2 x10_4/ul
same,Ret,[6],5.8%
same,WBC,[6],128.7 x10_2/uL
same,APTT,[7],19.3 s
same,Bas,[7],0%
same,Eos,[7],0.6%
same,Fbg,[7],233.6 mg/dL
same,Hb,[7],15 g/dL
same,Lym,[7],82.2%
same,MCH,[7],20.1 pg
same,MCHC,[7],33.6%
same,MCV,[7],59.7 fL
same,Mono,[7],6.4%
same,Plat,[7],119.9 x10_4/uL
same,RBC,[7],750.6 x10_4/ul
same,Ret,[7],5.6%
same,WBC,[7],115.6 x10_2/uL
same,APTT,[8],18.4 s
same,Bas,[8],0%
same,Eos,[8],1%
same,Fbg,[8],288.6 mg/dL
same,Hb,[8],15.3 g/dL
same,Ht,[8],45%
same,Lym,[8],80.4%
same,MCH,[8],19.3 pg
same,MCHC,[8],33.9%
same,MCV,[8],56.9 fL
same,Mono,[8],6.4%
same,Plat,[8],134.2 x10_4/uL
same,RBC,[8],791.2 x10_4/ul
same,Ret,[8],5.2%
same,WBC,[8],109.3 x10_2/uL
same,KIDNEY_L,[6],1.1 g
same,KIDNEY_R,[6],1.1 g
same,KIDNEY_TOTAL,[6],2.2 g
same,KIDNEY_L,[7],1.2 g
same,KIDNEY_R,[7],1.2 g
same,KIDNEY_TOTAL,[7],2.4 g
same,KIDNEY_L,[8],1.7 g
same,KIDNEY_R,[8],1.7 g
same,KIDNEY_TOTAL,[8],3.3 g
same,ALP,[6],838.2 IU/L
same,ALT,[6],31.4 IU/L
same,AST,[6],51.6 IU/L
same,BUN,[6],16 mg/dL
same,CRE,[6],0.6 mg/dL
same,Ca,[6],10.8 mg/dL
same,Cl,[6],107.2 meq/L
same,DBIL,[6],0.01 mg/dL
same,GLC,[6],183.8 mg/dL
same,IP,[6],7.4 mg/dL
same,K,[6],4.7 meq/L
same,LDH,[6],102.6 IU/L
same,Na,[6],140.2 meq/L
same,PL,[6],160.2 mg/dL
same,RALB,[6],3.6 g/dL
same,TBIL,[6],0.4 mg/dL
same,TC,[6],75.2 mg/dL
same,TG,[6],98.4 mg/dL
same,TP,[6],5.6 g/dL
same,gamma-GTP,[6],1.4 IU/L
same,ALP,[7],701.4 IU/L
same,ALT,[7],26.4 IU/L
same,AST,[7],55.8 IU/L
same,BUN,[7],17.6 mg/dL
same,CRE,[7],0.5 mg/dL
same,Ca,[7],10.8 mg/dL
same,Cl,[7],104.4 meq/L
same,DBIL,[7],0.042 mg/dL
same,GLC,[7],172 mg/dL
same,IP,[7],7.9 mg/dL
same,K,[7],4.2 meq/L
same,LDH,[7],92 IU/L
same,Na,[7],141.4 meq/L
same,PL,[7],152.6 mg/dL
same,RALB,[7],3.9 g/dL
same,TBIL,[7],0.4 mg/dL
same,TC,[7],64.4 mg/dL
same,TG,[7],88 mg/dL
same,TP,[7],5.8 g/dL
same,gamma-GTP,[7],1.2 IU/L
same,ALP,[8],453.2 IU/L
same,ALT,[8],24.6 IU/L
same,AST,[8],35.8 IU/L
same,BUN,[8],24.8 mg/dL
same,CRE,[8],0.7 mg/dL
same,Ca,[8],10.9 mg/dL
same,Cl,[8],106.6 meq/L
same,DBIL,[8],0.04 mg/dL
same,GLC,[8],175.6 mg/dL
same,IP,[8],7.3 mg/dL
same,K,[8],4.3 meq/L
same,LDH,[8],96.2 IU/L
same,Na,[8],141.2 meq/L
same,PL,[8],174.6 mg/dL
same,RALB,[8],3.9 g/dL
same,TBIL,[8],0.3 mg/dL
same,TC,[8],70.6 mg/dL
same,TG,[8],152.2 mg/dL
same,TP,[8],6.1 g/dL
same,gamma-GTP,[8],2.4 IU/L
